# Several values for one entry are separate records, joined by “and”; a condition that tells them apart may be missing. Identical values can stand only once. Like-named read-outs stand apart in the source and are kept apart here. Ends that are not written are not given here.
# Columns and labels:
# [1] = tested on: Bordetella bronchiseptica; details: cited from earlier work
# Streptococcus pyogenes = details: in µg/mL; cited from earlier work
# Streptococcus pneumoniae = details: cited from earlier work
# Enterococcus spp. = details: cited from earlier work
# Streptococcus spp. = details: cited from earlier work
# Neisseria meningitidis = details: cited from earlier work
# Campylobacter pylori = details: cited from earlier work
# [2] = tested on: Haemophilus parainfluenzae; details: cited from earlier work
# Neisseria gonorrhoeae = details: cited from earlier work; for MIC90: in µg/mL
# Borrelia burgdorferi = details: cited from earlier work
# Enterococcus faecium = details: cited from earlier work
# Staphylococcus aureus = details: cited from earlier work
# Bacteroides fragilis = details: cited from earlier work
# [3] = tested on: Branhamella (Moraxella) catarrhalis; details: MIC range; Branhamella (Moraxella) catarrhalis (β-lactamase producer); cited from earlier work
# Bacillus spp. = details: cited from earlier work
# Campylobacter jejuni = details: cited from earlier work
# Haemophilus ducreyi = details: cited from earlier work
# Haemophilus influenzae = details: cited from earlier work; for MIC50 / MIC90: in µg/mL; for Range: MIC range
# Streptococcus agalactiae = details: cited from earlier work
# Listeria monocytogenes = details: cited from earlier work
# Mycoplasma pneumoniae = details: cited from earlier work
# Mycoplasma hominis = details: cited from earlier work
# [4] = tested on: vancomycin and methicillin-resistant Gram-positives
# S. aureus 930918-3 = details: 930918-3, pH 7.4
# P. aeruginosa MR 3007 = details: MR 3007, pH 7.4
# P. aeruginosa PAO1 [5] = details: avg ± sem
# P. aeruginosa PAO1 [6] = assay: Relative time for killing (luminescence measured at intervals); assay type: cell-based; details: peptide at ten times its EC50 (SMAP29X-18D 15.7 X, SMAP29X-14A 17.4 X), 25 mM ionic strength
# MRSA ATCC 33591 = details: ATCC 33591, pH 7.4
# E. coli ML-35p = details: Table 13; for MIC E. coli [NaCl] High: high salt underlay (10 mM sodium phosphate buffer +100 mM NaCl, pH 7.4); for MIC E. coli [NaCl] Low: low salt underlay (10 mM sodium phosphate buffer, pH 7.4)
# [7] = Staphylococcus aureus (penicillin susceptible)
# [8] = Haemophilus influenzae (non β-lactamase producer)
# [9] = Haemophilus influenzae (penicillin resistant)
# [10] = Haemophilus influenzae (penicillin susceptible)
# [11] = Haemophilus influenzae (β-lactamase producer)
# [12] = E.f 142-1498-1 (Enterococcus fecaelis), Van A (vancomycin-resistant)
# [13] = E.f 142-6873-3 (Enterococcus fecaelis), Van B (vancomycin-resistant)
compound,measurement,setting,value
"CC[C@H]1OC(=O)[C@H](C)[C@@H](O[C@H]2C[C@@](C)(OC)[C@@H](O)[C@H](C)O2)[C@H](C)[C@@H](O[C@@H]2O[C@H](C)C[C@H](N(C)C)[C@H]2O)[C@](C)(O)C[C@@H](C)C(=O)[C@H](C)[C@@H](O)[C@]1(C)O [ERYTHROMYCIN, erythromycin]",Range,[1]; MIC range,4–32
same,MIC50,[1],8 µg/mL
same,MIC90,[1],32 µg/mL
same,MIC50,Streptococcus pyogenes,0.06 and 0.03
same,Range,Streptococcus pneumoniae; MIC range,0.03–0.25 and 0.015–0.06 and 0.015–0.25
same,MIC50,Streptococcus pneumoniae; in µg/mL,0.06 and 0.03
same,MIC90,Streptococcus pneumoniae; in µg/mL,0.03 and 0.06
same,MIC50,Enterococcus spp.,2 µg/mL
same,MIC50,Streptococcus spp.,0.03 µg/mL
same,Range,Neisseria meningitidis; MIC range,0.5–8
same,MIC50,Neisseria meningitidis,1 µg/mL
same,MIC90,Neisseria meningitidis,8 µg/mL
same,Range,Campylobacter pylori; MIC range,0.25–16
same,MIC50,Campylobacter pylori,0.5 µg/mL
same,Range,[2]; MIC range,0.5–8
same,MIC50,[2],2 µg/mL
same,MIC90,[2],4 µg/mL
same,Range,"Neisseria gonorrhoeae; MIC range, Neisseria gonorrhoeae (non β-lactamase producer)",0.015–4 and 0.03–2
same,MIC90,Neisseria gonorrhoeae; Neisseria gonorrhoeae (non β-lactamase producer),2 and 1
same,MIC90,Neisseria gonorrhoeae; Neisseria gonorrhoeae (β-lactamase producer),2 and 4
same,MIC90,Neisseria gonorrhoeae; Neisseria gonorrhoeae,1
same,MIC50,Borrelia burgdorferi,0.03 µg/mL
same,MIC90,Borrelia burgdorferi,0.06 µg/mL
same,MIC50,Enterococcus faecium,1 µg/mL
same,MIC50,Staphylococcus aureus; Staphylococcus aureus (methicillin susceptible),0.5 µg/mL
same,MIC50,Staphylococcus aureus; [7],0.5 µg/mL
same,MIC90,Staphylococcus aureus; [7],0.5 µg/mL
same,MIC50,Staphylococcus aureus; Staphylococcus aureus,0.5 µg/mL
same,Range,Bacteroides fragilis; MIC range,0.25–16
same,MIC50,Bacteroides fragilis,1 µg/mL
same,MIC90,Bacteroides fragilis,8 µg/mL
same,Range,[3],0.06–1 and 0.03–0.25 and 0.06–8
same,Range,Bacillus spp.; MIC range,0.03–2
same,MIC90,Bacillus spp.,2 µg/mL
same,Range,Campylobacter jejuni; MIC range,0.5–8
same,MIC90,Campylobacter jejuni; in µg/mL,4 and 2
same,MIC50,Haemophilus ducreyi,0.004 µg/mL
same,MIC90,Haemophilus ducreyi,0.06 µg/mL
same,MIC50,Haemophilus influenzae; [8],2 and 4
same,MIC90,Haemophilus influenzae; [8],4 and 8
same,MIC50,Haemophilus influenzae; [9],8
same,MIC90,Haemophilus influenzae; [9],16
same,MIC50,Haemophilus influenzae; [10],8
same,MIC90,Haemophilus influenzae; [10],16
same,MIC50,Haemophilus influenzae; [11],4 and 2
same,MIC90,Haemophilus influenzae; [11],8 and 4
same,MIC50,Haemophilus influenzae; Haemophilus influenzae,2 and 1
same,MIC90,Haemophilus influenzae; Haemophilus influenzae,2 and 4
same,Range,Haemophilus influenzae; [9],8–16
same,Range,Haemophilus influenzae; [10],0.25–16
same,Range,Haemophilus influenzae; Haemophilus influenzae,0.5–8
same,Range,Streptococcus agalactiae; MIC range,0.03–0.25 and 0.015–0.06
same,MIC50,Streptococcus agalactiae,0.03 µg/mL
same,MIC90,Streptococcus agalactiae,0.03 µg/mL
same,MIC50,Listeria monocytogenes,0.5 µg/mL
"CCC[C@@H]1C[C@@H](C(=O)N[C@@H]([C@H]2O[C@H](SC)[C@H](O)[C@@H](O)[C@H]2O)[C@@H](C)O)N(C)C1 [LINCOMYCIN, lincomycin]",Range,Mycoplasma pneumoniae; MIC range,2–32
same,MIC50,Mycoplasma pneumoniae,8 µg/mL
same,MIC90,Mycoplasma pneumoniae,32 µg/mL
same,Range,Mycoplasma hominis; MIC range,0.5–16
same,MIC50,Mycoplasma hominis,2 µg/mL
same,MIC90,Mycoplasma hominis,4 µg/mL
same,Range,"Staphylococcus aureus; MIC range, Staphylococcus aureus",0.5–512
same,MIC50,Staphylococcus aureus; Staphylococcus aureus,1 µg/mL
same,MIC90,Staphylococcus aureus; Staphylococcus aureus,1 µg/mL
KNLRRIIRKIIHIIKKYG [SMAP29X-18D],MIC,[4]; [12],32 µg/mL
same,MIC,[4]; [13],64 µg/mL
same,MIC S. aureus [NaCl] High,S. aureus 930918-3,1.4 µg/mL
same,MIC S. aureus [NaCl] Low,S. aureus 930918-3,2.0 µg/mL
same,MIC P. aeruginosa [NaCl] High,P. aeruginosa MR 3007,0.5 µg/mL
same,MIC P. aeruginosa [NaCl] Low,P. aeruginosa MR 3007,1.1 µg/mL
same,EC50 P. aeruginosa PAO1,P. aeruginosa PAO1 [5]; ionic strength 25 mM,0.29 ± 0.01 µg/mL
same,EC50 P. aeruginosa PAO1,P. aeruginosa PAO1 [5]; ionic strength 175 mM,0.58 ± 0.05 µg/mL
same,Half-time of Killing (min. avg. ± sem),P. aeruginosa PAO1 [6],2.9 min
same,MIC MRSA [NaCl] High,MRSA ATCC 33591,0.8 µg/mL
same,MIC MRSA [NaCl] Low,MRSA ATCC 33591,8.7 µg/mL
same,MIC E. coli [NaCl] High,E. coli ML-35p,0.5 µg/mL
same,MIC E. coli [NaCl] Low,E. coli ML-35p,0.8 µg/mL
LRRIIRKIIHIIKK-NH2 [SMAP29X-14A],MIC,[4]; [12],>64 µg/mL
same,MIC,[4]; [13],>64 µg/mL
same,MIC S. aureus [NaCl] High,S. aureus 930918-3,1.9 µg/mL
same,MIC S. aureus [NaCl] Low,S. aureus 930918-3,1.1 µg/mL
same,MIC P. aeruginosa [NaCl] High,P. aeruginosa MR 3007,2.7 µg/mL
same,MIC P. aeruginosa [NaCl] Low,P. aeruginosa MR 3007,2.0 µg/mL
same,EC50 P. aeruginosa PAO1,P. aeruginosa PAO1 [5]; ionic strength 25 mM,0.23 ± 0.03 µg/mL
same,EC50 P. aeruginosa PAO1,P. aeruginosa PAO1 [5]; ionic strength 175 mM,1.59 ± 0.22 µg/mL
same,Half-time of Killing (min. avg. ± sem),P. aeruginosa PAO1 [6],20.9 min
same,MIC MRSA [NaCl] High,MRSA ATCC 33591,>79.1 µg/mL
same,MIC MRSA [NaCl] Low,MRSA ATCC 33591,7.6 µg/mL
same,MIC E. coli [NaCl] High,E. coli ML-35p,0.9 µg/mL
same,MIC E. coli [NaCl] Low,E. coli ML-35p,2.9 µg/mL

# Reference: patent US7071293B1, “Alpha helical peptides with broad spectrum antimicrobial activity that are insensitive to salt” (priority 1999, dated 2006)
